Experimental findings from ChEMBL document CHEMBL5465560, “Selectivity Literature for EUbOPEN Chemogenomic Library” (2024) are described below.

Assay [1] deals with T1, Receptor-type tyrosine-protein kinase FLT3 (Homo sapiens), P36888 [R834Q].
T1 sequence (whole entry): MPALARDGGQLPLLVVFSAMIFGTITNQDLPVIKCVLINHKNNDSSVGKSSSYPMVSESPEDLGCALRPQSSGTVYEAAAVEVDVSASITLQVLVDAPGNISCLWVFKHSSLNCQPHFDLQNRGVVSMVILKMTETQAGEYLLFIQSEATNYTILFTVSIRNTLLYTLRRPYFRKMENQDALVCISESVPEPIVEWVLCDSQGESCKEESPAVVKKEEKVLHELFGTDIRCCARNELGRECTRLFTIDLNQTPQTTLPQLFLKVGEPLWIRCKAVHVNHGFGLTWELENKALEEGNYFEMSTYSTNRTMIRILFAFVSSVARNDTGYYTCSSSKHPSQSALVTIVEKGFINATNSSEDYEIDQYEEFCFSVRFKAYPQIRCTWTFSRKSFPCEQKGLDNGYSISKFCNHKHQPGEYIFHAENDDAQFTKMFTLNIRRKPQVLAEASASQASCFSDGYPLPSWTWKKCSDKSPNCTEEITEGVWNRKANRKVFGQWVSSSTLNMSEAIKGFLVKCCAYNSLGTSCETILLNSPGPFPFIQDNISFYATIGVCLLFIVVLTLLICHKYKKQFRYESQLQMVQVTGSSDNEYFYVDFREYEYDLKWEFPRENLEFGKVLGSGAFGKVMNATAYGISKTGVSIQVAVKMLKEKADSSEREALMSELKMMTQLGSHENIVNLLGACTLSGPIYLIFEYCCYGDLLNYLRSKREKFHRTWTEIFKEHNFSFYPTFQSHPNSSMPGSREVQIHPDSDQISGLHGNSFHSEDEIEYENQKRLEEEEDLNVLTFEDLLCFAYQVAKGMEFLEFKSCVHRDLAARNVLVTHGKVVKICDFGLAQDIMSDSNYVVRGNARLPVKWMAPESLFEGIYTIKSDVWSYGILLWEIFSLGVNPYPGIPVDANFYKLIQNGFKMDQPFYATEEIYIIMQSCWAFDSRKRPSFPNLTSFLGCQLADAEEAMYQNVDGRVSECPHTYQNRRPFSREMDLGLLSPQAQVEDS
Briefly: Selectivity interaction (KinomeScan (DiscoverX)) EUB0000666a FLT3. The conditions noted are these: at 10 µM.

Assay [2] deals with Cyclin-dependent kinase 17 (Homo sapiens) (UniProt Q00537). The conditions noted are these: at 10 µM.
Assay [3] deals with G protein-coupled receptor kinase 4 (Homo sapiens) (UniProt P32298). Put plainly: Selectivity interaction (Kinase panel (Invitrogen)) EUB0000639a GRK4. The conditions noted are these: at 200 nM.
Assay [4] concerns the target Cyclin-dependent kinase 1 (Homo sapiens) (UniProt P06493). Put plainly: Selectivity interaction (ActivX KiNativ screen (kinase selectivity in THP-1 cell lysates)) EUB0000639a CDK1. Format: subcellular. Conditions: lysate.
The target of assay [5] is Casein kinase II subunit alpha' (Homo sapiens) (UniProt P19784). Briefly: Selectivity interaction (ActivX KiNativ screen (kinase selectivity in THP-1 cell lysates)) EUB0000639a CSNK2A2. The class given is subcellular. The conditions noted are these: lysate.
The target of assay [6] is cAMP-dependent protein kinase catalytic subunit alpha (Homo sapiens, UniProt P17612). Put plainly: Selectivity interaction (ProQinase) EUB0000171b PRKACA.
For assay [7], the target named is Cyclin-Y/Cyclin-dependent kinase 16 (Homo sapiens) (UniProt Q00536+Q8ND76). Briefly: Selectivity interaction (ProQinase) EUB0000171b CDK16. The class given is protein-complex assay.
Assay [8] has as its target Tyrosine-protein kinase Fes/Fps (Homo sapiens) (UniProt P07332). Briefly: Selectivity interaction (KinomeScan (DiscoverX)) EUB0001049a FES. Conditions: at 1 µM.
Assay [9] concerns the target T2, Serine/threonine-protein kinase TAO3 (Homo sapiens) (UniProt Q9H2K8).
T2 sequence (whole entry): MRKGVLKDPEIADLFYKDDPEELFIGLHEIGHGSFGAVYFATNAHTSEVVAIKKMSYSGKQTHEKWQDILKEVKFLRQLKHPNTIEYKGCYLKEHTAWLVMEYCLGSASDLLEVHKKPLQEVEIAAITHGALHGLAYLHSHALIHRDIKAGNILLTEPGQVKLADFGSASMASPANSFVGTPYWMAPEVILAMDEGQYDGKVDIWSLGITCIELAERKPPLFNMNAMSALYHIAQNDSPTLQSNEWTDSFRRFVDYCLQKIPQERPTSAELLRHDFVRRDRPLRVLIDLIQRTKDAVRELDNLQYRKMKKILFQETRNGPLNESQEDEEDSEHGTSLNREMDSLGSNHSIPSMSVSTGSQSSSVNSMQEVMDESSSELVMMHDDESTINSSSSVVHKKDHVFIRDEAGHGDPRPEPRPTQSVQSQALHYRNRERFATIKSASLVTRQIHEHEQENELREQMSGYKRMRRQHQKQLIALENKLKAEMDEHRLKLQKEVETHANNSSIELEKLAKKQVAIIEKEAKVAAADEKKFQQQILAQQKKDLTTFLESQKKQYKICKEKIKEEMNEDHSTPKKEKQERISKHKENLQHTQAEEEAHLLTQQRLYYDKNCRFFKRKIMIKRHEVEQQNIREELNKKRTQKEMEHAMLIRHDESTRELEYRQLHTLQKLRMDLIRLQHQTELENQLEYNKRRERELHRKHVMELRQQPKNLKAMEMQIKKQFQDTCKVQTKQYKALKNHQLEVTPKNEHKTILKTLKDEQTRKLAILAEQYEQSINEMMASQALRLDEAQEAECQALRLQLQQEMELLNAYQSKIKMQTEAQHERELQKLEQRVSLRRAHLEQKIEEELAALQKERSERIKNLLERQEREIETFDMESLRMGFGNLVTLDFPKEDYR
Put plainly: Selectivity interaction (KinomeScan (DiscoverX)) EUB0001049a TAOK3. Conditions: at 1 µM.

Assay [10] concerns the target Serine/threonine-protein kinase NIM1 (Homo sapiens, UniProt Q8IY84). Briefly: Selectivity interaction (KinomeScan (DiscoverX)) EUB0000655a NIM1K. The conditions noted are these: at 10 µM.

Cyclin-dependent kinase 1 (Homo sapiens), sequence (P06493 whole entry, looked up): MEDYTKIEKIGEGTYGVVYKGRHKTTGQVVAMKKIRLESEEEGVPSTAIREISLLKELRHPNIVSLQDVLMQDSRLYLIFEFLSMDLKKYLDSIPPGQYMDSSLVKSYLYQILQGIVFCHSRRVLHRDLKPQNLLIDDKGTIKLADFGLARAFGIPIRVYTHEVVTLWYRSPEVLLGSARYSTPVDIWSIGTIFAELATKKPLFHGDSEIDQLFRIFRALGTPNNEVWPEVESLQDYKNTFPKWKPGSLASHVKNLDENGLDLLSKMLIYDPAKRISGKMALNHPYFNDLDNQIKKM
Casein kinase II subunit alpha' (Homo sapiens), sequence (P19784 whole entry, looked up): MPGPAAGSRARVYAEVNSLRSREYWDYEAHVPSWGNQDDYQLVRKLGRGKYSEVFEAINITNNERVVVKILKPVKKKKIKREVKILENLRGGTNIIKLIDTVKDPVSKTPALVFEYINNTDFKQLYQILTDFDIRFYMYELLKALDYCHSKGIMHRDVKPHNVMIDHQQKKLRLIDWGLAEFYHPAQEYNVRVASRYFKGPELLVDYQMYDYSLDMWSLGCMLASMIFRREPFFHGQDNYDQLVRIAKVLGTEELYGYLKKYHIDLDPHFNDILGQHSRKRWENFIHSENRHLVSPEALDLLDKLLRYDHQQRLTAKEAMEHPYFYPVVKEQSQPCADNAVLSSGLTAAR
Serine/threonine-protein kinase NIM1, sequence (Q8IY84 whole entry): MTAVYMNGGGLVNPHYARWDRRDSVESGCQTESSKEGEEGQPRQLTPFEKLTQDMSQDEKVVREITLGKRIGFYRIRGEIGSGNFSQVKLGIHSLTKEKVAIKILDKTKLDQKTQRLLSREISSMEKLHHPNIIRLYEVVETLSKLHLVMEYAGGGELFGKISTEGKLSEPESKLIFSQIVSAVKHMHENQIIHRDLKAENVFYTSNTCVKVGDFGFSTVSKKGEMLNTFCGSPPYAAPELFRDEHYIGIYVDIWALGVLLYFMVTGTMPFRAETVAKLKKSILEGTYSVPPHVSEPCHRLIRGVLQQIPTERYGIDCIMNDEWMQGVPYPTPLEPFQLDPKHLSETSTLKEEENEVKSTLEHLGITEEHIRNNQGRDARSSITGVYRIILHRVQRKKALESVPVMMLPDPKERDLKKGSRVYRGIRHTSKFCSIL
G protein-coupled receptor kinase 4 (Homo sapiens), sequence (P32298 whole entry, looked up): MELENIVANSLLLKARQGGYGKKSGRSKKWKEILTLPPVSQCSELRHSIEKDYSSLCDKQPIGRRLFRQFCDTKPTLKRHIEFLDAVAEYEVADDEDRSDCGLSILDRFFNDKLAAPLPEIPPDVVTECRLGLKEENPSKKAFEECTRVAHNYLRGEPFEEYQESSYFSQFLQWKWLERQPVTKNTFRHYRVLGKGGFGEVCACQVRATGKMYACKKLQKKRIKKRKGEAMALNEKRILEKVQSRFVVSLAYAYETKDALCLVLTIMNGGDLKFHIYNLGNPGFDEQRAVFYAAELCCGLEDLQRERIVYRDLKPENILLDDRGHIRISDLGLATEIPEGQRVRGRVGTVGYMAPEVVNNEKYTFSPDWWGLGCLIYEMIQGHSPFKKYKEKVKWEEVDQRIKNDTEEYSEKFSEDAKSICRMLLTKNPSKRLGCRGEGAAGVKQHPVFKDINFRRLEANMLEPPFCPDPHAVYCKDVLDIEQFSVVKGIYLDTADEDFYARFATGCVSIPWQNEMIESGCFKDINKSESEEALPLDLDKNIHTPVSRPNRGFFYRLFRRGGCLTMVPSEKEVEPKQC
Tyrosine-protein kinase Fes/Fps (Homo sapiens), sequence (P07332 whole entry): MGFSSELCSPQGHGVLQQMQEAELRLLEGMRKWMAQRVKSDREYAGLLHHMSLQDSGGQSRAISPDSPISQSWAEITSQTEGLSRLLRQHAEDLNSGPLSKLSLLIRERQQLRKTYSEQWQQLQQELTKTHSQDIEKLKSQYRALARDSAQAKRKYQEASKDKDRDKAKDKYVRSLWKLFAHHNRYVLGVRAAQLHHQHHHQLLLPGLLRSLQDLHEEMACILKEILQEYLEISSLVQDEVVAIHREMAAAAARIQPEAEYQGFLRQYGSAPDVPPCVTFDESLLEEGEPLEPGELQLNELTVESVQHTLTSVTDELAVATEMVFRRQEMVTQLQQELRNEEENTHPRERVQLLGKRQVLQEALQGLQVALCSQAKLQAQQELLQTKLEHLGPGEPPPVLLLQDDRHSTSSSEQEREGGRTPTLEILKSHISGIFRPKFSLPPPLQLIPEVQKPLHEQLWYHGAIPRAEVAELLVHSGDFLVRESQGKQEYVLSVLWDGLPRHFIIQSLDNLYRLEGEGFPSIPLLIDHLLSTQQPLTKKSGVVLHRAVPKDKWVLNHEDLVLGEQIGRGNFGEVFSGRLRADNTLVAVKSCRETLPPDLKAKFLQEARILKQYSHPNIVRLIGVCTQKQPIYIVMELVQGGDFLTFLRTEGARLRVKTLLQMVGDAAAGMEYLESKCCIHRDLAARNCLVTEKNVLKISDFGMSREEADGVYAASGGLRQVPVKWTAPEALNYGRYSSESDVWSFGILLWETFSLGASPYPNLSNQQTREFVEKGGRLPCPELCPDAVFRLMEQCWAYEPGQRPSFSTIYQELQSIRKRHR
Cyclin-dependent kinase 17 (Homo sapiens), sequence (Q00537 whole entry, looked up): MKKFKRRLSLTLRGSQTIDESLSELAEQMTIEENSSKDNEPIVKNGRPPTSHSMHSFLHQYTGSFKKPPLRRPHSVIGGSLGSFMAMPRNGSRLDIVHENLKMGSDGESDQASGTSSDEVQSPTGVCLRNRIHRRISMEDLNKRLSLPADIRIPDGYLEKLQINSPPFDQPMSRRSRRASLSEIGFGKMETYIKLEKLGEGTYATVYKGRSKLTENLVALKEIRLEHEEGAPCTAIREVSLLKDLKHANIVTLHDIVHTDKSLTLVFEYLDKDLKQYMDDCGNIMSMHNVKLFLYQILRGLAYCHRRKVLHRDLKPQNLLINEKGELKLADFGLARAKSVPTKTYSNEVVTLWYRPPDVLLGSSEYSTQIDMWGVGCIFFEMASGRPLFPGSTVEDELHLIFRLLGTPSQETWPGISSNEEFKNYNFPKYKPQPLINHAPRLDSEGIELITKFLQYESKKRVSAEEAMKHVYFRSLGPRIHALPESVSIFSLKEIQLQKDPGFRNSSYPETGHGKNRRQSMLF

As for `O=C(NOC[C@H](O)CO)c1ccc(F)c(F)c1Nc1ccc(I)cc1F`, in [1], the % of control was 78%.
Consider `Cc1cc([C@@H](C)Nc2ccccc2C(=O)O)c2nc(N3CCOCC3)cc(=O)n2c1` [AZD-6482], for which, in assay [2], the % of control stood at 100%.
As to `CC[C@@H]1[C@H](F)C(=O)N[C@@H]1COc1nccc2cc(C(N)=O)c(OC)cc12` [ZIMLOVISERTIB], the % of inhibition in [3] is -5.8%; in [4] (at 0.01 µM), 2.4%; in assay [4] (at 0.04 µM) it was 3.3%; in [4] (at 0.2 µM), 14.8%; in [4] (at 1 µM), 3.1%; in [4] (at 5 µM), -9%. The % of inhibition is -4.5% in assay [5] (at 0.01 µM); -21.2% in [5] (at 0.04 µM); -18% in assay [5] (at 0.2 µM); -3.6% in [5] (at 1 µM); -2.6% in [5] (at 5 µM).
Consider `C=CC(=O)Nc1cccc(C(=O)Nc2ccc(Nc3cc(-c4[nH]c(SC)nc4C)ccn3)cc2)c1`, for which the % of control amounted to 84% in assay [6] (at 1 µM), 66% in assay [6] (at 5 µM), 88% in assay [7] (at 1 µM) and 87% in assay [7] (at 5 µM).
`COc1cc(Nc2nc(C)cc(-c3cnn4nc(OC)ccc34)n2)cc(C(F)(F)F)c1`: the figures for the % of control in assay [8] and in assay [9] were 95% and 75%, respectively.
`CN(C)CCOc1ccc(-c2nc(-c3ccncc3)c(-c3ccc4c(c3)CC/C4=N\O)[nH]2)cc1` registered a % of control in [10] of 91%.
